Assay results published in the NIST ThermoML archive (doi:10.1021/je700300y).

Assay: xn = mol fraction of the nth substance listed
Conditions: 101 kPa, Liquid

CO [methanol] + O
mass density [kg/m3]
Conditions	283.15 K	288.15 K	293.15 K	298.15 K	303.15 K	308.15 K	313.15 K
x2 = 0.0871	814.96	810.44	805.91	801.35	796.78	792.17	787.52
x2 = 0.1529	826.26	821.86	817.44	812.99	808.5	803.98	799.41
x2 = 0.2395	841.8	837.53	833.23	828.9	824.53	820.11	815.64
x2 = 0.3306	859.01	854.89	850.73	846.53	842.28	837.98	833.61
x2 = 0.4064	873.83	869.85	865.81	861.73	857.59	853.4	849.13
x2 = 0.4788	888.32	884.5	880.62	876.68	872.67	868.59	864.45
x2 = 0.5552	904.06	900.44	896.75	893	889.17	885.26	881.28
x2 = 0.6365	921.03	917.69	914.28	910.78	907.2	903.52	899.76
x2 = 0.7321	941.06	938.2	935.24	932.18	929.02	925.74	922.36
x2 = 0.7901	952.73	950.29	947.7	945	942.19	939.27	936.09
x2 = 0.8807	970.64	969.11	967.39	965.47	963.37	961.09	958.65
x2 = 0.964	988.96	988.25	987.25	986	984.5	982.79	980.87

CCO [ethanol] + O
mass density [kg/m3]
Conditions	283.15 K	288.15 K	293.15 K	298.15 K	303.15 K	308.15 K	313.15 K
x2 = 0.0805	808.05	803.79	799.51	795.19	790.85	786.45	782.01
x2 = 0.1584	818.14	813.87	809.57	805.23	800.84	796.41	791.93
x2 = 0.2376	828.89	824.61	820.29	815.93	811.53	807.07	802.5
x2 = 0.3322	842.93	838.67	834.37	830.01	825.61	821.15	816.63
x2 = 0.4026	854.12	849.89	845.61	841.27	836.89	832.45	827.94
x2 = 0.491	869.86	865.67	861.44	857.16	852.81	848.4	843.95
x2 = 0.5806	888.19	884.08	879.93	875.71	871.44	867.11	862.72
x2 = 0.648	903.57	899.55	895.48	891.35	887.16	882.91	878.59
x2 = 0.7185	921.65	917.78	913.84	909.85	905.8	901.68	897.49
x2 = 0.8009	944.6	941.07	937.48	933.81	930.07	926.25	922.34
x2 = 0.8813	965.96	963.49	960.85	958.06	955.13	952.05	948.82
x2 = 0.9605	984.04	983.11	981.89	980.42	978.75	976.91	974.89
